Values of other authors as cited in patent US20070275382A1, “Biomarkers for the Efficacy of Somatostatin Analogue Treatment” (priority 2003, published 2007).
Where two headings read alike, the source gives them in different places.

Experiments:
hSST-2 = hSST-2 (Homo sapiens, UniProt P30874); conditions: background statement, cited from earlier work
hSST-3 = hSST-3 (Homo sapiens, UniProt P32745); conditions: background statement; cited from earlier work
Chain of hSST-3 (P32745 whole entry): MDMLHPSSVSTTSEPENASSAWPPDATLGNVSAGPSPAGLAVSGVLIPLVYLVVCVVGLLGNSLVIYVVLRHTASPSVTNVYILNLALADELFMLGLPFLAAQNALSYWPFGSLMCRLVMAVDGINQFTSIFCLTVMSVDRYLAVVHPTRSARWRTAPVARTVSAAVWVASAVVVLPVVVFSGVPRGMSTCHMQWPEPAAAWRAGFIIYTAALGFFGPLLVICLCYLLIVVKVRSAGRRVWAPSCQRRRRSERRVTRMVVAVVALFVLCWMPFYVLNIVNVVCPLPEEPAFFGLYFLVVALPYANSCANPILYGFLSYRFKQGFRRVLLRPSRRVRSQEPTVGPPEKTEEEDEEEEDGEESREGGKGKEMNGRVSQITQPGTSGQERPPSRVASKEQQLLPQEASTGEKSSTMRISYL

Chain of hSST-2 (P30874 whole entry): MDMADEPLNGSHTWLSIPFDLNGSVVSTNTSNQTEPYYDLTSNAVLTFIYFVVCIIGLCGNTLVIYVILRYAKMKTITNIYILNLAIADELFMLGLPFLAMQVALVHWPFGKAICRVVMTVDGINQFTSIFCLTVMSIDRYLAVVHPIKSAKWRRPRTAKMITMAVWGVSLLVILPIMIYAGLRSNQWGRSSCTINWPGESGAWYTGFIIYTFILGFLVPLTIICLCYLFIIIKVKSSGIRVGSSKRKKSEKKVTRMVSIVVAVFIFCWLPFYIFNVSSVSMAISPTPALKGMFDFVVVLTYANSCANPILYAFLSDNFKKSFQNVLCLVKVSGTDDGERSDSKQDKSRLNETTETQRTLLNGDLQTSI

Row | SMILES | affinity/binding to somatostatin receptor subtype 2 (SSTR2) (hSST-2) | affinity/binding to somatostatin receptor subtype 2 (SSTR2) (hSST-2; listed as Sandostatin®) | binding to SSTR3 (hSST-3)
1 | C[C@@H](O)[C@@H]1NC(=O)[C@H](CCCCN)NC(=O)[C@@H](Cc2c[nH]c3ccccc23)NC(=O)[C@H](Cc2ccccc2)NC(=O)[C@@H](NC(=O)[C@H](N)Cc2ccccc2)CSSC[C@@H](C(=O)N[C@H](CO)[C@@H](C)O)NC1=O [octreotide] | selective high affinity | binds mainly to SSTR2 | to some extent
2 | CC(C)[C@@H]1NC(=O)[C@H](CCCCN)NC(=O)[C@@H](Cc2c[nH]c3ccccc23)NC(=O)[C@H](Cc2ccc(O)cc2)NC(=O)[C@@H](NC(=O)[C@H](N)Cc2ccc3ccccc3c2)CSSC[C@@H](C(=O)N[C@H](C(N)=O)[C@@H](C)O)NC1=O [lanreotide] | selective high affinity |  | 
